# Test results as given in patent US8318801B2, “Cinnamic compounds and derivatives therefrom for the inhibition of histone deacetylase” (Naturewise Biotech & Medicals Corporation, priority 2009, dated 2012).
# “Also recorded” adds a separate entry of the source.
# Legend:
# [1] = test system: cyclin D1 in MCF-7 breast cancer cells; conditions: cited from earlier work
# [2] = test system: Human lung cancer A549 cells; assay: Inhibition of cancer cell growth; type: cell-based; conditions: 72 hrs, NBM-C-BX-OS01 7.5, others 2.5, 5.0, 7.5 μg/mL (FIG. 5(b))
# Method: (§1) Three cancer cell lines, Rat C6 giloma cells, Human breast cancer MCF-7 cells, and Human lung cancer A549 cells, were cultured in Dulbecco's modified Eagle's medium (DMEM; Gibco) containing 10% fetal bovine serum (FBS) and 1% penicillin/streptomycin. All three cell lines were maintained at 37° C. in a humidified atmosphere of 95% air and 5% CO2. For the experiments, the cells were seeded in 6-well plates. After 24 hours, the cells were treated with different concentrations of the various compounds.
# (§2) Five cancer cell lines, Rat C6 giloma cells, Human breast cancer MCF-7 cells, Human glioma Hs683 cells, Human glioblastoma 05-MG cells, and Human lung cancer A549 cells, were cultured in Dulbecco's modified Eagle's medium (DMEM; Gibco) containing 10% fetal bovine serum (FBS) and 1% penicillin/streptomycin, and were kept at 37° C. in a humidified atmosphere of 95% air and 5% CO2. Human breast cancer. MDA-MB-231 cells were cultured in L-15 medium (Gibco) containing 10% fetal bovine serum (FBS), 1% penicillin/streptomycin, and 2 mM glutamine, and were maintained at 37° C. in a humidified atmosphere of 95% air and 0% CO2. For these experiments, the cells were seeded in 6-well plates or a 60-mm dish. After 24 hours, the cells were treated with different concentrations of the various compounds. […] Human glioblastoma 05-MG cells were treated with NBM-C-BCX-OS01 (1.0, 2.0, 4.0 μg/mL) and NBM-C-BMX-OS01 (1.0, 2.0, 4.0 μg/mL) for 72 hours (see FIG. 5(e)). […] The results were counted by a trypan blue exclusion assay (see FIG. 6(b)).
# Rat C6 glioma cells = assay: Inhibition of cancer cell growth and change of morphology; type: cell-based
# Method: as §1, §2
# [3] = test system: human breast cancer MDA-MB-231 cells; assay: as above; type: cell-based; conditions: MDA-MB-231 cells
# Method: Their results were counted by a trypan blue exclusion assay (see FIG. 9(f)).
# as §2
# Human glioma Hs683 cells [4] = assay: Inhibition of cancer cell growth; type: cell-based; conditions: Hs683 cells, 1.25, 2.5, 5.0 μg/mL, 72 hrs (FIG. 5(d))
# Method: Their results were counted by a trypan blue exclusion assay (see FIG. 8(e)).
# as §2
# [5] = test system: Human glioblastoma 05-MG cells; assay: Inhibition of cancer cell growth; type: cell-based; conditions: 05-MG cells, 1.0, 2.0, 4.0 μg/mL, 72 hrs (FIG. 5(e))
# Method: as §2
# [6] = test system: acetyl-Histone H3, acetyl-Histone H4, acetyl-tubulin, p21, CTPS, Gelsolin, Hsp90, acetyl-Hsp90 in Human glioma Hs683 cells; assay: Immunoblotting of histones and HDAC associated proteins; type: cell-based; conditions: Hs683 cells, 1.0, 2.0, 4.0 μg/mL
# Method: Human glioma Hs683 cells were seeded at 5×10^5 cells in a 60-mm dish or 1×10^6 cells in a 100-mm dish. After 24 hours, Human glioma Hs683 cells were treated with different doses of NBM-C-BCX-OS01, NBM-C-BMX-OS01 (1.0, 2.0, 4.0 μg/mL), and vorinostat (SAHA, 5 μM) for 72 hours. Lysates of Hs683 cells were prepared for the immunoblotting of acetyl-Histone H3 (Cell Signaling Technology, Inc.), acetyl-Histone H4 (Upstate), acetyl-tubulin (Sigma Chemical Co.), p21 (BD Pharmingen Technology, Inc.), CTPS (ABNOVA TAIWAN Corporation), Gelsolin (Sigma Chemical Co.), Hsp90 (Cell Signaling Technology, Inc.), acetyl-Hsp90 (ROCKLAND, Inc.) and actin (Sigma Chemical Co.). Proteins were detected by chemiluminescence (ECL, Amersham). […] SAHA was used as a positive control and β-actin as an internal control (see FIG. 7(b)).
# Human glioma Hs683 cells [7] = assay: Cell cycle analysis by flow cytometry (propidium iodide); type: cell-based; conditions: Hs683 cells, 1.0, 2.0, 4.0 μg/mL, 72 hrs (FIG. 6(e))
# Method: Human lung cancer A549 cells, Human glioma Hs683 cells and Human glioblastoma 05-MG cells were seeded 1×10^6 cells in a 100-mm dish. After 24 hours of incubation in DMEM+10% BSA, Human lung cancer A549 cells were treated with NBM-HB-OS01 (2.5, 5.0, 7.5, 10.0 μg/mL) for 24 hours and were treated with NBM-C-BCX-OS01 (2.5, 5.0, 7.5 μg/mL) and NBM-C-BMX-OS01 (2.5, 5, 7.5 μg/mL) for 72 hours. Human glioblastoma 05-MG cells were treated with NBM-C-BCX-OS01 (1.0, 2.0, 4.0 μg/mL) and NBM-C-BMX-OS01 (1.0, 2.0, 4.0 μg/mL) for 72 hours. Human glioma Hs683 cells were treated with NBM-C-BCX-OS01 (1.0, 2.0, 4.0 μg/mL). For cell cycle analysis, cells were fixed in 80% ethanol for 1 hour (or overnight) at −20° C. and then incubated with 2 μg/mL RNase A for 30 minutes at 37° C. Cells were stained with propidium iodide ([…] PI) in PBS and analyzed using a Becton Dickinson flow cytometer, BD FACScan and CellQuest acquisition and analysis programs. […] Human glioma Hs683 cells were treated with NBM-C-BCX-OS01 (1.0, 2.0, 4.0 μg/mL) for 72 hours.
# [8] = test system: transgenic mouse model of spinal and bulbar muscular atrophy; conditions: cited from earlier work
# [9] = test system: Human breast cancer MCF-7 cells; assay: Inhibition of cancer cell growth and change of morphology; type: cell-based; conditions: MCF-7 cells, 2.5, 5.0, 7.5 μg/mL, 72 hrs (FIG. 3(a))
# Method: as §1, §2
# [10] = test system: acetyl-Histone H3 in Human lung cancer A549 cells; assay: Immunostaining of HDAC associated proteins; type: cell-based; conditions: 7.5 μg/mL, 6 hrs (FIG. 3(c))
# Method: Rat C6 glioma cells, Human breast cancer MCF-7 cells, and Human lung cancer A549 cells were seeded in 6-well plates. After 24 hrs of incubation in medium+10 BSA, Human breast cancer MCF-7 cells were treated with NBM-HB-OS01 (10.0 μg/mL) and vorinostat (SAHA, 5 μM) for 24 hours. Rat C6 glioma cells were treated with NBM-C-BX-OS01 (7.5 μg/mL) and vorinostat (SAHA, 5 μM) for 6 hours. Human lung cancer A549 cells were treated with NBM-C-BA-OS01 (7.5 μg/mL) and vorinostat (SAHA, 5 μM) for 6 hours. The treated cells were fixed in 80% methanol for 30 minutes and then washed 3 times with PBS solution. Cells were permeabilized with 0.3% Triton X-100 for 30 minutes, and then blocked in 10% fetal bovine serum (FBS) in PBS-T (0.1% Twin 20 in PBS) for 1 hour. The treated cells were detected with primary antibody against acetyl-Histone H3, acetyl-tubulin, and Gelsolin.
# [11] = test system: SMN2 protein in fibroblast cells derived from SMA patients; conditions: after 64 hours of treatment; cited from earlier work
# [12] = Rat C6 glioma cells, 24 hrs, NBM-C-BA-OS01 5 μg/mL, others 2.5, 5.0 μg/mL (FIG. 5(a))
compound,measurement,setting,value
CC(/C=C/C(=O)NO)=C\[C@@H](C)C(=O)c1ccc(N(C)C)cc1 [Trichostatin A],ubiquitin-dependent cyclin D1 degradation,[1],induce ubiquitin-dependent cyclin D1 degradation
"COc1ccc(/C=C\C(=O)NO)c(OCc2ccc(Cl)cc2)c1CC=C(C)C [NBM-C-BCX-OS01, (Z)-2-(4-Chlorobenzoxy)-3-prenyl-4-methoxy-N-hydroxycinamide]",cell growth inhibition,[2],induced A549 cells growth inhibition in a dose-dependent manner; also recorded: induced A549 cell growth inhibition in dose-dependent amounts
same,inhibition of cell growth,Rat C6 glioma cells; [12],inhibited the cell growth
same,"inhibition of cell growth, similar to dose-dependent A549 result","Rat C6 glioma cells; Rat C6 glioma cells, various concentrations, 24 hrs (FIG. 5(c))",the results were similar
same,change of cell morphology,[3]; 72 hours (FIG. 6(a)),changed the morphology of the cells
same,inhibition of cell growth,"[3]; various concentrations, 72 hrs (FIG. 6(a))",inhibition of the cell growth of human breast cancer MDA-MB-231 cells was observed; also recorded: inhibited the growth
same,cell growth inhibition,Human glioma Hs683 cells [4],Cell growth inhibition was observed
same,cell growth inhibition,[5],Cell growth inhibition was observed
same,CTPS protein level,[6]; 72 hrs (FIG. 7(a)),decreased in a dose-dependent manner
same,Hsp90 protein level,[6]; 72 hrs (FIG. 7(a)),decreased in a dose-dependent manner
same,induction (increase) of acetylated Hsp90 protein,[6]; 72 hrs (FIG. 7(a)),detected in a dose-dependent manner; also recorded: observed in a dose-dependent manner
same,induction (increase) of gelsolin protein,[6]; 72 hrs (FIG. 7(a)),detected in a dose-dependent manner; also recorded: observed in a dose-dependent manner
same,expression of acetylated Histone H3,[6]; 72 hrs (FIG. 7(b)),significantly increased in a dose-dependent manner; also recorded: induced in a dose-dependent manner
same,expression of acetylated Histone H4,[6]; 72 hrs (FIG. 7(b)),significantly increased in a dose-dependent manner; also recorded: induced in a dose-dependent manner
same,expression of acetylated tubulin,[6]; 72 hrs (FIG. 7(b)),significantly increased in a dose-dependent manner; also recorded: induced in a dose-dependent manner
same,expression of p21,[6]; 72 hrs (FIG. 7(b)),significantly increased in a dose-dependent manner; also recorded: induced in a dose-dependent manner
same,growth arrest in cell cycle analysis,Human glioma Hs683 cells [7],arrested the growth; also recorded: could arrest the growth
CCCC(=O)[O-].[Na+] [sodium butyrate],effect on phenotypic expression,[8],ameliorates phenotypic expression
"COc1ccc(/C=C/C(=O)Nc2ccccc2N)c(OCc2ccccc2)c1CC=C(C)C [NBM-C-BA-OS01, (E)-2-Benzoxy-3-prenyl-4-methoxy-N-(2-aminophenyl) cinamide]",changes in morphology,[9],exhibited changes in morphology
same,inhibition of cell growth,"Rat C6 glioma cells; Rat C6 glioma cells, 7.5 μg/mL, 48 hrs (FIG. 4)",inhibited the Rat C6 glioma cell growth
same,changes in morphology,"Rat C6 glioma cells; Rat C6 glioma cells, 2.5, 5.0, 7.5 μg/mL, 72 hrs (FIG. 3(b))",exhibited changes in morphology
same,inhibition of cell growth,Rat C6 glioma cells; [12],inhibited the cell growth
same,acetylation of Histone H3 protein,[10],Hyperacetylation of Histone H3 protein was detected; also recorded: could induce the HDAC associated proteins expression
CN(C)c1ccc(C(=O)NCCCCCCC(=O)NO)cc1 [M344],up-regulation of SMN2 protein expression,[11],up to 7 fold
